Laboratory results: US3995061A, “Pharmaceutical composition and method of using the same” (Chugai Seiyaku Kabushiki Kaisha, priority 1974, dated 1976)

Tests used:
[1] = system: blood platelet; test: Aggregation inhibition activity of blood platelet (ADP-induced, platelet rich plasma of orally dosed rats); format: in vivo, Wister-Imamich strain male rats; details: rat, 20 mg/kg oral, 6 hours; adenosine-5'-diphosphate 10^-5 M in platelet rich plasma
Description: In this Example Wister-Imamich strain male rats weighing 230 ± 30 g which had been bred with the use of a commercial chow, CLEA CE-2 were used.
The rats were divided into groups of five members each, and orally administered with a different ascochlorin derivative as a suspension in 2% gum arabic aqueous solution in a dose of 20 mg/kg.body weight. Six hours after the administration, the blood of each rat was sampled from the heart and after the addition of citric acid, the blood sample was centrifuged at 1,500 r.p.m. for 10 minutes to obtain platelet rich plasma. The anti-aggregation effect when the concentration of adenosine-5'-diphosphatein the platelet rich plasma is ultimately 10^^-5 M is shown in Table II.
As positive controls, ascochlorin, ethyl-α-(p-chlorophenoxy) isobutylate and acetyl salicyclic acid were used. The aggregation inhibition ratio was evaluated in percent by comparing the increase of transmission rate caused by the addition of adenosin-5'-diphosphate to platelet rich plasma of the control group (no medication) with that caused on the groups administered with an ascochlorin derivative which is calculated for 100.

[2] = system: Cholesterol in serum; test: Serum cholesterol lowering activity in rats on high-fat feed, single oral dose; format: in vivo, Wister-Imamich strain male rats; details: rat, 75 mg/kg oral, 6 hours after administration
From the text: The cholesterol lowering activity of the ascochlorin derivatives of this invention was observed by the use of Wister-Imamich strain male rats weighing 230 ± 30 g which had been bred with the use of high-fat feed comprising 1000 g of powdery chow CLEA CE-2 (sold by NIHON CLEA KABUSHIKI KAISHA) admixed with 10 g of cholesterol, 95 g of hydrogenated coconut oil, 2 g of cholic acid, 150 g of milk casein and 671 g of sucrose.
The rats were divided into groups of five members each, and orally administered with a different ascochlorin derivative as a suspension in gum arabic aqueous solution in a dose of 75 mg/kg.body weight. The rats were kept from eating food, and 6 hours after the administration, the blood of each rat was sampled from its heart. The total amount of cholesterol in serum was determined by a modified Zurkowski method (Clinical Chemistry, 10, 451, 1964) with the use of a colorimeter for blood analysis (sold by KYOTO DAIICHI KAGAKU).

[3] = system: Lipid in liver and aorta; test: Hypolipidemic activity: change of lipid level in organs and aorta abdominalis, 30 days, high-fat feed; format: in vivo, Wister strain rats; details: rat, 45.0 mg/kg oral
Description: Wister strain rats weighing 150 ± 20 g were divided into groups of 10 members each and bred with high-fat feed, the same as that used in Example 1. The rats were orally administered ascochlorin, 4-O-methylascochlorin or ethyl-α-(p-chlorophenoxy) isobutylate in a predetermined dose every morning for 30 days. Six hours after the last administration, liver and aorta of each rat were taken out and lipid level in the organs of each of the rats were determined. Lipid present in the liver and aorta was extracted with methanol-chloroform (1:1) by allowing it to stand overnight and the extract was assayed as to lipid level.

[4] = system: Serum Lipid; test: Hypolipidemic activity: change in level of serum lipid, 30 days, high-fat feed; format: in vivo, Wister strain rats; details: rat
[5] = 45.0 mg/kg oral, average ± standard error

## CCCOc1c(Cl)c(C)c(C=O)c(O)c1C/C=C(C)/C=C/C1(C)C(C)CCC(=O)C1C (stereo not drawn) [4-O-n-propylascochlorin]
[1]
  Aggregation Inhibition Ratio: 56.5%
[2]
  Cholesterol in serum: 84.3 mg/dL

## CCC(C)Oc1c(Cl)c(C)c(C=O)c(O)c1C/C=C(C)/C=C/C1(C)C(C)CCC(=O)C1C (stereo not drawn) [4-O-sec-butylascochlorin]
[1]
  Aggregation Inhibition Ratio: 51.1%
[2]
  Cholesterol in serum: 89.1 mg/dL

## CC(/C=C/C1(C)C(C)CCC(=O)C1C)=C\Cc1c(O)c(C=O)c(C)c(Cl)c1OC(C)(C)C (stereo not drawn) [4-O-tert-butylascochlorin]
[1]
  Aggregation Inhibition Ratio: 60.5%
[2]
  Cholesterol in serum: 82.7 mg/dL

## CC(=O)Oc1ccccc1C(=O)O [acetyl salicylic acid, reference compound]
[1]
  Aggregation Inhibition Ratio: 73.1%

## CCOC(=O)C(C)(C)Oc1ccc(Cl)cc1 [ethyl-α-(p-chlorophenoxy) isobutylate, reference compound]
[3]
  Cholesterol in Liver, increasing or reducing ratio based on the control: +20.6
  Cholesterol in Tunica intima of aorta abdominalis, increasing or reducing ratio based on the control: -14.7
  Phospholipid in Liver, increasing or reducing ratio based on the control: +13.2
  Triglyceride in Liver, increasing or reducing ratio based on the control: +10.7
[3]; average ± standard error
  Cholesterol in Liver: 41.0 ± 4.5 mg/g
  Phospholipid in Liver: 79.5 ± 3.1 mg/g
  Triglyceride in Liver: 24.2 ± 2.2 mg/g
[1]
  Aggregation Inhibition Ratio: 0%
[4]; 45.0 mg/kg oral
  Serum Cholesterol, increasing or reducing ratio based on the control: +7.9
  Serum Free fatty acid, increasing or reducing ratio based on the control: -10.1
  Serum Phospholipid, increasing or reducing ratio based on the control: -0.7
  Serum Triglyceride, increasing or reducing ratio based on the control: -9.2
  Serum β-Lipoprotein, increasing or reducing ratio based on the control: -3.7
[4]; [5]
  Serum Cholesterol: 115.3 ± 5.5 mg/dL
  Serum Free fatty acid: 45.2±1.6 μ eq./dl
  Serum Phospholipid: 135.9 ± 13.6 mg/dL
  Serum Triglyceride: 72.1 ± 4.4 mg/dL
  Serum β-Lipoprotein: 738 ± 46 mg/dL
[4]; oral, groups of Tables IV and V
  lowering of lipids in serum, liver and aorta (such effects): such effects were not observed
[2]
  Cholesterol in serum: 103.8 mg/dL
